In assay [1] the test system is HER2 in T47D cells. The assay is described as follows: HER2 turnover after cycloheximide treatment (western blot). The assay is classed as cell-based, human. The settings on record: for Normalized HER2 expression: 50 ug/ml. Here is the method:
(§1) Additionally, the degradation rates of APLP2 and HER2 was tested on T47D cells. For the assay, T47D cells were plate at 10^6 cells/well in 6 well plates (Corning #3516). The cells were allowed to grow overnight at 37° C. in 5% CO2 in media consisting of RPMI 1640+10% FBS+1 mM sodium pyruvate+10 mM HEPES+10 ug/mL Insulin+5 mL Penicillin/Streptomycin/Glutamine. The following day, cells were treated with 50 ug/ml cycloheximide (Sigma #C4859-1ML) for 0, 0.5, 1.5, 2.5, 3.5, 4.5 and 5.5 hours. After the incubation, cells were washed once with 1 ml of DPBS/CM, and subsequently placed on ice and then the DPBS/CM was replaced with 800 uL of lysis buffer [1×RIPA (Boston Bioproducts, Cat #BP-116)+Protease inhibitor (Thermo Fisher, 1861280), cells were scraped and lysates were transferred to 1.5 ml Eppendorf tubes. Afterwards, the samples were sonicated with 25 pulses, 1 sec each at 50% power. Afterwards, the samples were frozen at −20° C. The samples were later thawed and 52 ul of each sample was mixed with 20 ul 4× Laemmli (Invitrogen, NP0007)+8 uL 10× Reducing agent (Invitrogen, Cat #NP0009)]. Samples were boiled at 95° C. for 10 minutes, centrifuged at 14000 RPM for 10 minutes at room temperature. 40 uL of each sample was loaded into three Wedged 4-20% TRIS-Glycine gels (Invitrogen, XPO4125BOX) and ran at 150V. The gels were then transferred into two PVDF membranes (ThermoFisher, IB24001) with iBlot2 dry blotting system (ThermoFisher, 1321001). The membranes were then blocked with 5% milk (BioRad, Cat #170-6404) in TBS for 3 hours at room temperature. Primary antibodies, rabbit-anti-HER2 antibody (Dako, Cat #A048529) or rabbit-anti-APLP2 antibody (abcam, Cat #ab140624) in 2.5% Milk+0.1% Tween (Sigma, Cat #P8074) in TRIS buffered saline (TBS; ThermoFisher, Cat #28376), were then added to the membranes and incubated at 4° C. overnight. The membranes were then washed 3 times with TBS for 5 minutes at room temperature. After, anti-rabbit-HRP antibodies (Promega, #W4011) and anti-actin-HRP antibody (Santa Cruz, Cat #sc-47779) in 2.5% Milk+0.1% Tween in TBS were added to the membranes and incubated at room temperature for 1 hour. The membranes were then washed 2 times with TBS+0.1% Tween at room temperature for 5 minutes, and then washed 2 more times with TBS room temperature for 5 minutes. The blot was then developed with ECL Detection Reagent (GE healthcare, Cat #RPN2106) and imaged with Azure C300 imager. Band quantification (mean fluorescence intensity minus background) was performed using ImageJ. Table 11 summarizes HER2, APLP, or T47D cells after cycloheximide (CHX) treatment normalized to cells having no CHX contact.
For orientation: A western blot detects proteins with antibodies after separation by electrophoresis.

Assay [2] concerns APLP2 in T47D cells. Briefly: APLP2 turnover after cycloheximide treatment (western blot). The assay is classed as cell-based, human. Particulars: for Normalized APLP2 expression: 50 ug/ml. Here is the method: as §1

Molecules are shown by their SMILES.

For the molecule `C[C@@H]1C[C@@H]([C@H](O)CC2CC(=O)NC(=O)C2)C(=O)[C@@H](C)C1` [CHX, cycloheximide], the “Normalized HER2 expression” value stood at 57% in assay [1] (CHX treatment 0.5 hours); 78% in assay [1] (CHX treatment 1.5 hours); 68% in assay [1] (CHX treatment 2.5 hours); 64% in assay [1] (CHX treatment 3.5 hours); 88% in assay [1] (CHX treatment 4.5 hours); 78% in assay [1] (CHX treatment 5.5 hours). In assay [1] (after 5.5 hours), this molecule showed an HER2 degradation of 22%. Moreover, the “Normalized APLP2 expression” value in assay [2] (CHX treatment 0.5 hours) is 41%; in assay [2] (CHX treatment 1.5 hours), 22%; in assay [2] (CHX treatment 2.5 hours) it was 9%; in assay [2] (CHX treatment 3.5 hours), 7%; in assay [2] (CHX treatment 4.5 hours) it was 8%; in assay [2] (CHX treatment 5.5 hours), 6%. The APLP2 degradation in assay [2] (after 5.5 hours) is 94%. Besides, the APLP2 degraded result in assay [2] (in 1.5 hours) was “Eighty-eight”.

For the origin of these results see patent publication US12037411B2, “Antibodies, and bispecific antigen-binding molecules that bind HER2 and/or APLP2, conjugates, and uses thereof” (Regeneron Pharmaceuticals, Inc., priority 2018, dated 2024).
